Measurements: patent US20250382250A1, “STILBENE DERIVATIVE AS AHR AGONIST AND USE THEREOF” (NANJING GRITPHARMACO., LTD., priority 2022, published 2025)
Marks after values point to notes of the source that are not given here.

Columns and labels:
[1] = Drug permeation rate test, in vitro diffusion through semipermeable membrane; type: in vitro ADME; details: ointments: 2# 1.2 wt %, 6# 1.2 wt %, benvitimod 1.0 wt %, 32° C.
Description: (§1) Test compounds: compound 2 #ointment, 1.2 wt %; compound 6 #ointment, 1.2 wt %; benvitimod ointment, 1.0 wt %;
[drawing 90] • (1) Preparation of semipermeable membrane: The semipermeable membrane, which had been prepared in advance, was taken out from the refrigerator; • (2) Preparation of receiving liquid: 100 mL of polyethylene glycol 400 solution was brought to a final volume of 250 mL with normal saline. The mixture was mixed well and stored at 4° C. Before each permeation in the receiving compartment, the system was preheated to 32° C.; • (3) In vitro diffusion test: A drug transdermal diffusion apparatus was used to fix the processed semipermeable membrane between the supply and receiving compartments. A constant temperature water bath circulation at 32° C. was maintained. The system was equilibrated for 30 min. Upon each replacement of the receiving liquid, the air at the lower layer was exhausted. About 0.5 g of the ointment was evenly smeared in the supply compartment. The system was stirred with a magnetic stirring at a rotation speed of 600 r/min. At 0.5, 1, 2, 4, 6, and 24 h, 1 mL of sample liquid was taken out from the receiving compartment, and simultaneously, an equal amount of fresh receiving liquid at the same temperature was added;
The sampling time points were 0.5, 1, 2, 4, 6, and 24 h, and 1 mL of sample was directly transferred into a liquid phase vial. Simultaneously, an equal amount of fresh receiving liquid at the same temperature was added. The liquid phase detection was conducted to calculate the drug permeation rate.

[2] = Ointment diffusion test, ex vivo rabbit skin; type: in vitro ADME; details: ointments: 2# 1.2 wt %, 6# 1.2 wt %, benvitimod 1.0 wt %, 32° C.
Description: as §1
• (1) Preparation of ex vivo rabbit skin • (2) Preparation of receiving liquid: 100 mL of polyethylene glycol 400 solution was brought to a final volume of 250 mL with normal saline. The mixture was mixed well and stored at 4° C. Before each permeation in the receiving compartment, the system was preheated to 32° C. • (3) In vitro transdermal test: A drug transdermal diffusion apparatus was used to fix the processed rabbit skin between the supply and receiving compartments, with the stratum corneum facing the supply compartment. A constant temperature water bath circulation at 32° C. was maintained. The system was equilibrated for 30 min. Upon each replacement of the receiving liquid, the air at the lower layer was exhausted, and the liquid droplets on the skin surface were removed with paper. 0.5 g of the ointment was evenly smeared in the supply compartment. The system was stirred with a magnetic stirring at a rotation speed of 600 r/min. At 0.5, 1, 2, 3, 4, 5, 7, 9, 12, and 24 h, 1 mL of sample liquid was taken out from the receiving compartment and transferred into a liquid phase vial, and simultaneously, an equal amount of fresh receiving liquid at the same temperature was added. The liquid phase detection was conducted to calculate the drug permeation rate.

IL4 = experiment: Regulatory effect on cytokine secretion in PHA-stimulated PBMCs: IL4; type: cell-based; details: for IL4: PBMCs, 15 μg/mL PHA, 24 h (PHA group 9.42)
Description: (§2) • (1) Cells: […]; • (2) Cell plating and treatment: After the PBMCs were taken out from the liquid nitrogen tank and thawed, 80 μL of culture medium was added to a 96-well plate, and the cells were added at 200,000 cells/well. The culture media containing 2 μM or 0.2 μM compound 2 #, compound 6 #, or reference 1 # were added to the 96-well plate at 80 μL, at a final drug concentration of 1 μM or 0.1 μM per well. The plate was let stand for 1 h for pretreatment. After the pretreatment, the drug-containing medium was discarded, and 1 μM or 0.1 μM solution containing 15 μg/mL PHA (phytohemaggluyinin) was added at 80 μL/well. After 24 h of stimulation, the content of cytokines in the culture medium was detected. • Blank control group: The cells were treated with a normal culture medium with no drugs; • PHA group: A culture medium containing 15 μg/mL PHA but no compounds of the present disclosure was added at 80 μL/well.

TNFa = experiment: Regulatory effect on cytokine secretion in PHA-stimulated PBMCs: TNFa; type: cell-based; details: for TNFa: PBMCs, 15 μg/mL PHA, 24 h (PHA group 3649.21)
Description: as §2

AhR = molecular target: T1, AhR (Homo sapiens, UniProt P35869); experiment: AhR agonism luciferase reporter gene assay in transfected HepG2 cells; type: cell-based; details: 16 h, ratio of treatment group to blank
T1 construct: expressed in transfected cells; host or cells: HepG2
T1 sequence (P35869 11-848): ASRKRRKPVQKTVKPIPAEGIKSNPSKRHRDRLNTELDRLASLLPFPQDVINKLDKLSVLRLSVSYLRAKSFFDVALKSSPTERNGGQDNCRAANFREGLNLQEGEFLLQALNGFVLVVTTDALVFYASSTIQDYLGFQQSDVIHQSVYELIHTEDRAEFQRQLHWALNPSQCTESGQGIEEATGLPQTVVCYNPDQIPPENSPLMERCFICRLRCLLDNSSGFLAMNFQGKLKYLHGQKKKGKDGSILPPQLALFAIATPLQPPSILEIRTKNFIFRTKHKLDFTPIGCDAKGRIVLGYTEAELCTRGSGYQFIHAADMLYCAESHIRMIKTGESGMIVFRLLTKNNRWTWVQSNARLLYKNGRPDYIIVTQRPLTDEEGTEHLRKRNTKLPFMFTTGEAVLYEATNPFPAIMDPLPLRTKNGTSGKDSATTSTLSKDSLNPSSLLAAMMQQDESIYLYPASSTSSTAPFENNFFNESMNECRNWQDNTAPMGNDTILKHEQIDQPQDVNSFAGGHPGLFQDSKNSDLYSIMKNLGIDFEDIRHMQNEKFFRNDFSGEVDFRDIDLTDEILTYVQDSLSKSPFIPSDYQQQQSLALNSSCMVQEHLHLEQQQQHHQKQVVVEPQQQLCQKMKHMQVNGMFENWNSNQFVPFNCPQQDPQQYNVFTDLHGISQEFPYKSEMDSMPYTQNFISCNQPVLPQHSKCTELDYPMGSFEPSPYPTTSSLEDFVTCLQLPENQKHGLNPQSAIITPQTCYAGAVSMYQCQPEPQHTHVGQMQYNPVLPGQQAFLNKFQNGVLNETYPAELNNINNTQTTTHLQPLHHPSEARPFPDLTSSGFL
Description: When the cell confluence reached 80%, the culture medium was replaced with a fresh one, and the transfection working solution was added for transfection overnight. The formula of the working solution is as follows: 1 mL of Opti-MEM+7.5 μg of pCMV-AHR+7.5 μg of pTK-3×DRE-Luc+30 μL of lipo6000. • (2) Cell plating: The transfected cells were digested, prepared into a cell suspension at a concentration of 3×10^5 cells/mL, and then plated on a 96-well plate at 100 µL/well for adherent culture overnight. • (3) Formulation
The prepared drug-containing culture media and a blank culture medium were added to the 96-well plate described above at 100 μL/well.

atopic dermatitis = experiment: DNFB-induced atopic dermatitis mouse model (AD Score); type: in vivo, BALB/C mice; set-up: scale not given here; details: DNFB mice
Description: 56 clean-grade BALB/C mice aged 6-8 weeks were subjected to 5 days of adaptive feeding and then randomized into 7 groups of 8 mice each: • A. Blank control group • B. Modeling+solvent group • C. Modeling+blank matrix group • D. Modeling+positive drug mometasone furoate group • E. Modeling+1 wt % of benvitimod group • F. […] The animal experiments were conducted in accordance with the Experimental Animal Feeding, Management and Use Guidelines of China Pharmaceutical University and in compliance with animal study ethics and regulations. As shown in the above procedures, the solvent control or DNFB was given in the morning for modeling; from day 5, the test compound ointment was administered once every afternoon at 50 mg/dose evenly on the skin surface. The specific administration method is as shown above; Specific procedures: […] Severity of atopic dermatitis was scored using the AD Score criteria The severity of the appearance of dermatitis was evaluated based on 4 indicators: A. erythema/bleeding; B. dryness; C. effusion/crusting; D. edema.

Question: With Oc1cc(/C=C/c2ccc(F)cc2)cc(O)c1C1CCCC1 [Compound 2, (E)-2-cyclopentyl-5-(4-fluorostyryl)-1,3-benzenediol] as the compound, how does the “24-hour drug permeation rate (rank order)” value [1] read?
Answer: The value was “benvitimod >2 #>6 #”.

Question: And the “24-hour drug permeation rate (rank order)” value [2]?
Answer: Its value is “benvitimod >2 #>6 #”.

Question: And the IL4 (IL4; 0.1 μM)?
Answer: Its IL4 is 5.19 pg/mL.

Question: What about the “inhibitory effect on IL4 relative to reference 1# (benvitimod)” value (IL4; 1 μM) of the same compound?
Answer: Its value is 2 folds.

Question: What about the IL4 (IL4; 1 μM) of the same compound?
Answer: Its IL4 is 4.30 pg/mL.

Question: What about the TNFa (TNFa; 0.1 μM) of the same compound?
Answer: The TNFa was 1353.72 pg/mL.

Question: What about the “inhibitory effect on TNFa relative to reference 1# (benvitimod)” value (TNFa; 1 μM) of the same compound?
Answer: Its value is 2 folds.

Question: What about the TNFa (TNFa; 1 μM) of the same compound?
Answer: Its TNFa is 941.41 pg/mL.

Question: What about the “AhR receptor agonistic fold” value (AhR; drug concentration 0.1 μM) of the same compound?
Answer: Its value is 6.1 ± 0.6 fold.

Question: And the “AhR receptor agonistic fold” value (AhR; drug concentration 1 μM)?
Answer: The value was 37.9 ± 6.9 fold.

Question: What about the “Back AD score” value (atopic dermatitis; day 0, before ointment treatment (from day 5)) of the same compound?
Answer: Its value is 0.00 ± 0.00.

Question: And the “Back AD score” value (atopic dermatitis; day 4, before ointment treatment (from day 5))?
Answer: The value was 3.19 ± 0.75.

Question: And the “Back AD score” value (atopic dermatitis; day 6, ointment 50 mg once daily from day 5 (1.2 wt % 2#/6#, 1 wt % benvitimod))?
Answer: Its value is 5.63 ± 1.96.

Question: And the “Back AD score” value (atopic dermatitis; day 8, ointment 50 mg once daily from day 5 (1.2 wt % 2#/6#, 1 wt % benvitimod))?
Answer: Its value is 6.13 ± 1.96**^aab.

Question: And the “Back AD score” value (atopic dermatitis; day 10, ointment 50 mg once daily from day 5 (1.2 wt % 2#/6#, 1 wt % benvitimod))?
Answer: The value was 5.31 ± 1.87**^aab.
